# Patent US20230312587A1, “PTERIDINONE COMPOUNDS AND USES THEREOF” (Vertex Pharmaceutical Incorporated, priority 2018, published 2023)
# Tested on: β-catenin-TCF-mediated reporter transcription activity in Colo 205 cells
# Assay: Colo 205 reporter assay (TCF/LEF luciferase)
# Type: cell-based
# Conditions: Homo sapiens, COLO 205, 5 h, Colo 205 TCF/LEF luciferase reporter, five hours after addition of compound; read-out: TCF reporter Colo205 IC50
# Method in brief: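 Luciferase signal from a TCF/LEF-driven reporter, stably integrated in Colo 205 colon cancer cells, was measured 5 h after compound addition.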
row,IC50,Structure (SMILES)
1,≥ 5000 nM,"Cc1nc(NC2CN(C(=O)[C@@H]3CCCO3)C2)nc2c1NC(=O)[C@H](C(C)C)N2C [Compound 642, (S)-7-isopropyl-4,8-dimethyl-2-((1-((S)-tetrahydrofuran-2-carbonyl)azetidin-3-yl)amino)-7,8-dihydropteridin-6(5H)-one]"
2,< 300 nM,"Cc1nc(N[C@H]2C[C@@H](Oc3cnc(C(F)(F)F)nc3)C2)nc2c1NC(=O)[C@H](C(C)C)N2C [Compound 644, (S)-7-isopropyl-4,8-dimethyl-2-((cis-3-((2-(trifluoromethyl)pyrimidin-5-yl)oxy)cyclobutyl)amino)-7,8-dihydropteridin-6(5H)-one]"
3,< 300 nM,"CC[C@H]1C(=O)Nc2c(C)nc(N[C@H]3C[C@H](Oc4cnc(C(F)(F)F)nc4)C3)nc2N1C [Compound 645, (S)-7-ethyl-4,8-dimethyl-2-((trans-3-((2-(trifluoromethyl)pyrimidin-5-yl)oxy)cyclobutyl)amino)-7,8-dihydropteridin-6(5H)-one]"
4,< 300 nM,"CC[C@H]1C(=O)Nc2c(C)nc(N[C@H]3C[C@@H](COc4ccc(C(F)(F)F)nc4)C3)nc2N1C [Compound 646, (S)-7-ethyl-4,8-dimethyl-2-((cis-3-(((6-(trifluoromethyl)pyridin-3-yl)oxy)methyl)cyclobutyl)amino)-7,8-dihydropteridin-6(5H)-one]"
5,< 300 nM,"CO[C@H](C)[C@H]1C(=O)Nc2c(C)nc(N[C@H]3C[C@@H](Nc4cnc(C(F)(F)F)cn4)C3)nc2N1C [Compound 647, (S)-7-((R)-1-methoxyethyl)-4,8-dimethyl-2-((cis-3-((5-(trifluoromethyl)pyrazin-2-yl)amino)cyclobutyl)amino)-7,8-dihydropteridin-6(5H)-one]"
6,< 300 nM,"CC[C@H]1C(=O)Nc2c(C)nc(N[C@H]3C[C@@H](Nc4cnc(C(F)(F)F)cn4)C3)nc2N1C [Compound 648, (S)-7-ethyl-4,8-dimethyl-2-((cis-3-((5-(trifluoromethyl)pyrazin-2-yl)amino)cyclobutyl)amino)-7,8-dihydropteridin-6(5H)-one]"
7,< 300 nM,"Cc1nc(NC2CN(Cc3ccc(C(F)(F)F)nc3)C2)nc2c1NC(=O)[C@H](C(C)C)N2C [Compound 649, (S)-7-isopropyl-4,8-dimethyl-2-((1-((6-(trifluoromethyl)pyridin-3-yl)methyl)azetidin-3-yl)amino)-7,8-dihydropteridin-6(5H)-one]"
8,< 300 nM,"Cc1nc(NC2CN(Cc3ccc(C(F)(F)F)cc3)C2)nc2c1NC(=O)[C@H](C(C)C)N2C [Compound 650, (S)-7-isopropyl-4,8-dimethyl-2-((1-(4-(trifluoromethyl)benzyl)azetidin-3-yl)amino)-7,8-dihydropteridin-6(5H)-one]"
9,1000 to 5000 nM,"CO[C@H](C)[C@H]1C(=O)Nc2c(C)nc(N[C@H]3C[C@@H](N(C)c4cnc(C(F)(F)F)cn4)C3)nc2N1C [Compound 651, (S)-7-((R)—1-methoxyethyl)-4,8-dimethyl-2-((cis-3-(methyl(5-(trifluoromethyl)pyrazin-2-yl)amino)cyclobutyl)amino)-7,8-dihydropteridin-6(5H)-one]"
10,300 to 1000 nM,"Cc1nc(N[C@H]2C[C@@H](N(C)c3cnc(C(F)(F)F)cn3)C2)nc2c1NC(=O)[C@H](C(C)C)N2C [Compound 652, (S)-7-isopropyl-4,8-dimethyl-2-((cis-3-(methyl(5-(trifluoromethyl)pyrazin-2-yl)amino)cyclobutyl)amino)-7,8-dihydropteridin-6(5H)-one]"
11,≥ 5000 nM,"Cc1nc(N[C@H]2C[C@@H](N(C)c3cnc(C(F)(F)F)cn3)C2)nc2c1NC(=O)[C@H](C)N2C [Compound 653, (S)-4,7,8-trimethyl-2-((cis-3-(methyl(5-(trifluoromethyl)pyrazin-2-yl)amino)cyclobutyl)amino)-7,8-dihydropteridin-6(5H)-one]"
12,< 300 nM,"Cc1nc(N[C@H]2C[C@H](N(C)c3cnc(C(F)(F)F)cn3)C2)nc2c1NC(=O)[C@H](C(C)C)N2C [Compound 655, (7S)-7-isopropyl-4,8-dimethyl-2-((trans-3-(methyl(5-(trifluoromethyl)pyrazin-2-yl)amino)cyclobutyl)amino)-7,8-dihydropteridin-6(5H)-one]"
